# Test results taken from US20240317683A1, “METHODS OF TREATING MOOD DISORDERS” (priority 2020, published 2024).
# Counter-ions that a name gives are not always drawn.
# Columns and labels:
# [1] = Stability in mouse brain homogenate; type: in vitro ADME, CD-1 mice
# Protocol: Mouse Brain Homogenate Stability. Frozen mouse brain homogenate (pooled from male CD-1 mice, BioreclamationIVT, MSE00BRAINMZA) was thawed in a water bath at 37° C. immediately prior to use. Positive controls and test compounds (final concentration in incubation medium=1 μM for test compounds and 2 μM for controls, all with 2% DMSO) were incubated in duplicate for each time point (0, 10, 30, 60, and 120 min) in the mouse brain homogenate at a total reaction volume of […] at 37° C. At the end of each incubation period, reactions were immediately quenched with 400 μL of acetonitrile containing internal standard (200 ng/mL tolbutamine and 200 ng/ml labetalol) and mixed thoroughly. Plates were then sealed, shaken for 20 min, and centrifuged at 4,000 rpm and 4° C. for 20 min. Aliquots of 50 μL of each supernatant were diluted into 100 μL of water and the mixtures were then shaken again for 10 min.
# [2] = Metabolic stability in mouse liver microsomes (MLM); type: in vitro ADME, CD-1 mice; conditions: CD-1, mouse, pooled mouse liver microsomes, pH 7.4, NADPH
# Protocol: MLM Stability. Pooled MLM from CD-1 mice (BIOIVT M00501) were used. Microsomal incubations were carried out in multi-well plates. […] Control incubations were performed by replacing the NADPH-cofactor system with PBS. Test compounds (1 μM, final solvent concentration 1.0%) were incubated with microsomes at 37° C. with constant shaking. Six time points over 60 minutes were analyzed, with 60 μL aliquots of the reaction mixture being drawn at each time point.
# [3] = target: 5-HT1A (Homo sapiens (Human), UniProt P08908); assay: FLIPR Ca2+ flux agonist assay, 5-HT1A; type: cell-based
# Protocol: (§1) A solution of 250 mM probenecid in 1 mL FLIPR assay buffer was prepared fresh. This was combined with a fluorescent dye (Fluo-4 Direct™) to make a final assay concentration of 2.5 mM. […] The fluorescent dye was then added to the assay plate along with assay buffer to a final volume of 40 μL. The cell plate was incubated for 50 min at 37° C. and 5% CO2 and placed into the FLIPR Tetra along with the compound plate. 10 μL of references and compounds were then transferred from the compound plate into the cell plate and the fluorescent signal was read.
# [4] = system: C57BL/6 mice; assay: Head twitch response (HTR) in mice; type: in vivo; conditions: for Average HTR: 20 mins
# Protocol: Animals. Adult male C57BL/6 mice, aged 8 weeks (body weight 20-25 g) were used in these experiments. Animals were housed under controlled temperatures and 12-hour light/dark cycles (lights on between 07:00-19:00 h), with ad libitum food and water. The protocol was approved by the Eurofins Advinus Institutional Animal Care and Use Committee. This study was carried out in strict accordance with the recommendations in the Guide for the Care and Use of Laboratory Animals of the National Institutes of Health. All efforts were made to minimize suffering.
# Drugs and Drug administration. Compounds 3 and 4 were prepared as described above. All other compounds were commercially obtained. Test compounds were used as the hydrogen fumarate (1 and 2) or hydrochloride (DOI, 3, and 4) salts. Drugs were dissolved in a vehicle consisting of normal saline and administered subcutaneously (SC) in a volume of 10 ml/kg. Test compounds were administered at 5 doses per compound (0.1 to 100 mg/kg, as indicated, calculated based on the free base) using N=6 animals/group. […] For blockade experiments, MDL100907 (0.1 mg/kg, SC) was administered 10 mins prior to the test compound.
# Procedure. Mice were administered one dose of a test drug (or vehicle) s.c. and immediately placed into a small open field for behavioral observation. Animals were observed continuously for 20 mins and the number of HTRs were counted by an observer blind to the treatment condition.
# Statistical analysis. The data points shown in Table 11 are the mean ±standard error of the mean (SEM). Analysis was performed using GraphPad Prism 9.
# [5] = target: CYP3A4 (Homo sapiens (Human), UniProt P08684); assay: CYP inhibition in human liver microsomes, CYP3A4; type: in vitro ADME
# CYP3A4, sequence (P08684 whole entry, looked up): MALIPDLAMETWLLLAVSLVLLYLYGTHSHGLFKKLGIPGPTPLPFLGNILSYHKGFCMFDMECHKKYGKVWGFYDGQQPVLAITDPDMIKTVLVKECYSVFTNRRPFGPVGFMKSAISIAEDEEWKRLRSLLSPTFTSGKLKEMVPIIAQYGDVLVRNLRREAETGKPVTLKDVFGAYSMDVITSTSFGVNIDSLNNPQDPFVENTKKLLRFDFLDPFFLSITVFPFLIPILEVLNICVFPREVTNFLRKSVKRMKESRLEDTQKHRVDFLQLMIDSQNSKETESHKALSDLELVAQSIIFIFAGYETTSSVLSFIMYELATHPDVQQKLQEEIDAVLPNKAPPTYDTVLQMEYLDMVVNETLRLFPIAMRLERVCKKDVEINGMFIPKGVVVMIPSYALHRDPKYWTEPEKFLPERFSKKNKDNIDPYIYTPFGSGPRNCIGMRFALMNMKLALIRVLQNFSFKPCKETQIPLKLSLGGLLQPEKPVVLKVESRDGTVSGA
# [6] = Stability in rat brain homogenate; type: in vitro ADME, Sprague Dawley rats
# Protocol: Rat Brain Homogenate Stability. Frozen rat brain homogenate (pooled from male Sprague Dawley rats, BioreclamationIVT, RATOOBRAINMZA) was thawed in a water bath at 37° C. immediately prior to use. Positive controls and test compounds (final concentration in incubation medium=1 μM for test compounds and 2 μM for controls, all with 2% DMSO) were incubated in duplicate for each time point (0, 10, 30, 60, and 120 min) in the rat brain homogenate at a total reaction volume of 100 μL at 37° C. At the end of each incubation period, reactions were immediately quenched with 400 μL of acetonitrile containing internal standard (200 ng/ml tolbutamine and 200 ng/ml labetalol) and mixed thoroughly. Plates were then sealed, shaken for 20 min, and centrifuged at 4,000 rpm and 4° C. for 20 min. Aliquots of 50 μL of each supernatant were diluted into 100 uL of water and the mixtures were then shaken again for 10 min.
# [7] = target: 5-HT2B (Homo sapiens (Human), UniProt P41595); assay: FLIPR Ca2+ flux agonist assay, 5-HT2B; type: cell-based
# 5-HT2B, sequence (P41595 whole entry, looked up, species assumed): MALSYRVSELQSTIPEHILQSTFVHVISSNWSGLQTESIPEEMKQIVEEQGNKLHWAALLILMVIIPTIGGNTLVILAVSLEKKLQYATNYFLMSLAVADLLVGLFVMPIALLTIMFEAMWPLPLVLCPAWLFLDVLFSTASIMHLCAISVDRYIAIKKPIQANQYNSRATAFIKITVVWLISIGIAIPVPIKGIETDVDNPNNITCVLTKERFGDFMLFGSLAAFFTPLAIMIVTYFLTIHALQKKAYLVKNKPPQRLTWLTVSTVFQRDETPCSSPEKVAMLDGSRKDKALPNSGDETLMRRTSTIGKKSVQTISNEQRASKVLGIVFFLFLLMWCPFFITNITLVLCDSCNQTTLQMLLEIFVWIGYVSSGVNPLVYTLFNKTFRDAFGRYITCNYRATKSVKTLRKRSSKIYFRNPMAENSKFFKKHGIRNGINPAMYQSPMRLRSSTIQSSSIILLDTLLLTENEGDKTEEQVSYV
# Protocol: as §1
# [8] = system: monoamine oxidase A and B (MAO-A and MAO-B); assay: Stability in the presence of monoamine oxidases (human liver mitochondria); type: in vitro ADME
# Protocol: Liver Mitochondria Incubations. Human liver mitochondria (Xenotech H0610.M) were used. Mitochondrial incubations were carried out in multi-well plates. […] Six time points over 60 minutes were analyzed.
# [9] = human liver mitochondria, pH 7.4, human mitochondrial preparation, 1 μM
structure (smiles),measurement,setting,value
"CCN(C)CCc1c[nH]c2ccc(F)cc12 [Compound 4, N-ethyl-2-(5-fluoro-1H-indol-3-yl)-N-methylethan-1-amine hydrochloride]",stability in mouse brain homogenate (in words),[1],intermediate stability
same,half-life at 1 μM,"[1]; male, CD-1, mouse brain homogenate, 1 μM, 37° C.",54.3 min
same,% Compound Remaining (after 120 min),"[1]; mouse brain homogenate, 1 μM, 37° C.",20.7%
same,half-life at 1 μM,[2],47.6 min
same,microsomal CLint at 1 μM,[2],29.1 µL/min/mg
same,EC50,[3],16.9 µM
same,5-HT1A % Act @ Max Dose,"[3]; Ca2+ flux, CHO cells",83.01%
same,Average HTR,[4]; 0.1 mg/kg SC,5.00
same,Average HTR,[4]; 1 mg/kg SC,18.333
same,Average HTR,[4]; 10 mg/kg SC,9.333
same,total number of HTR counts vs. vehicle (FIG. 2),"[4]; Cmp 4 alone, Dunnett's test, P<0.0001",significantly different from vehicle
same,maximal effect in HTR,"[4]; SC, maximal over tested doses",27.67 head twitches/20 min
same,IC50,[5],> 50 µM
same,stability in rat brain homogenate (in words),[6],intermediate stability
same,half-life at 1 μM,"[6]; male, Sprague Dawley, rat brain homogenate, 1 μM, 37° C.",183 min
same,% Compound Remaining (after 120 min),"[6]; rat brain homogenate, 1 μM, 37° C.",62.0%
same,EC50,[7],> 10 µM
same,5-HT2B % Act @ Max Dose,"[7]; Ca2+ flux, HEK293",0.79%
same,MAO stability (in words),[8]; human liver mitochondria preparation,intermediate stability
same,half-life at 1 μM,[8]; [9],> 145 min
same,microsomal CLint at 1 μM,[8]; [9],< 15.9 µL/min/mg
same,Remaining (t = 60 min),"[8]; human mitochondrial preparation, 1 μM, 60 min",75.0%
